In paper PMC6746701, “A phyB-PIF1-SPA1 kinase regulatory complex promotes photomorphogenesis in Arabidopsis” (Nature Communications, 2019):
Values belong to the molecule of their own block, whether it stands above or below them.

Tests used:
full-length SPA1 = biological target: T1, full-length SPA1 (Arabidopsis thaliana, UniProt Q9SYX2, R517E); assay: in vitro kinase assay, autoradiogram; assay type: biochemical; details: GST-PIF1 as co-substrate, 10 mM MgCl2, pH 7.5, 28 °C; labelled compound (gamma-32P)
T1 construct: full length, strep-tagged (3x Flag also cloned), Pichia pastoris GS115, tags kept
T1 sequence (Q9SYX2 1-1029 R517E): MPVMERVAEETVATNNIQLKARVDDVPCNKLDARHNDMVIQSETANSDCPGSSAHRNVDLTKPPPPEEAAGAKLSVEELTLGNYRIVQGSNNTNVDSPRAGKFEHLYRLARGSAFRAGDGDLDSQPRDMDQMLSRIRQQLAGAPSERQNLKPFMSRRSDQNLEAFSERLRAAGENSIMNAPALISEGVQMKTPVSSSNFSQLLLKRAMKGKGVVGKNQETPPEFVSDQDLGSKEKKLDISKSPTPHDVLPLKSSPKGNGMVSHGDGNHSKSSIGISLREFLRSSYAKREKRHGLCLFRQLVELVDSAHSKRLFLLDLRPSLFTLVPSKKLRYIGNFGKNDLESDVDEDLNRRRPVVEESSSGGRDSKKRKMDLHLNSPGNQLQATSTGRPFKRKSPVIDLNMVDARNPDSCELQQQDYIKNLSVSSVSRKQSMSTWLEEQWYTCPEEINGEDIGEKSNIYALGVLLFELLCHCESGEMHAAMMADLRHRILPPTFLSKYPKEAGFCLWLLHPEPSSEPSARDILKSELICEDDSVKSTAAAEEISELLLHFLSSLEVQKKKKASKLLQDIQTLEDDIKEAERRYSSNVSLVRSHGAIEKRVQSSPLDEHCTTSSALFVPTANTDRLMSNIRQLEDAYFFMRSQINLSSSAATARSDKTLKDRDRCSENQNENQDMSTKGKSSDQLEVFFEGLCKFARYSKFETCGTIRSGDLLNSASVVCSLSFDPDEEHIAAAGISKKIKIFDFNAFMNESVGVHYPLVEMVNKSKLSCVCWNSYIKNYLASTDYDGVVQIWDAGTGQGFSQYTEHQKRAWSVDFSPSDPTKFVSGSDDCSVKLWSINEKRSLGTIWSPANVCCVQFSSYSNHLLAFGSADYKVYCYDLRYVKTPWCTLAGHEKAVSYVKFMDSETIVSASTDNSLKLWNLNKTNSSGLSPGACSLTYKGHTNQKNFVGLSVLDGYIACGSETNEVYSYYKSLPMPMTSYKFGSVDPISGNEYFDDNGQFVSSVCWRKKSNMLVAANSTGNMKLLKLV

[1] = biological target: T2, phyB-GFP FL purified from yeast (Saccharomyces cerevisiae) (Arabidopsis, UniProt P14713 1-1172, phycocyanobilin (PCB) chromophore assembled); assay: pull-down; in vitro: phytochromes purified from yeast (S. cerevisiae) and GST-PIF1; light-dependent; details: both partners purified
T2 construct: not shown: GFP, C-terminal, kept
T2 sequence (looked up): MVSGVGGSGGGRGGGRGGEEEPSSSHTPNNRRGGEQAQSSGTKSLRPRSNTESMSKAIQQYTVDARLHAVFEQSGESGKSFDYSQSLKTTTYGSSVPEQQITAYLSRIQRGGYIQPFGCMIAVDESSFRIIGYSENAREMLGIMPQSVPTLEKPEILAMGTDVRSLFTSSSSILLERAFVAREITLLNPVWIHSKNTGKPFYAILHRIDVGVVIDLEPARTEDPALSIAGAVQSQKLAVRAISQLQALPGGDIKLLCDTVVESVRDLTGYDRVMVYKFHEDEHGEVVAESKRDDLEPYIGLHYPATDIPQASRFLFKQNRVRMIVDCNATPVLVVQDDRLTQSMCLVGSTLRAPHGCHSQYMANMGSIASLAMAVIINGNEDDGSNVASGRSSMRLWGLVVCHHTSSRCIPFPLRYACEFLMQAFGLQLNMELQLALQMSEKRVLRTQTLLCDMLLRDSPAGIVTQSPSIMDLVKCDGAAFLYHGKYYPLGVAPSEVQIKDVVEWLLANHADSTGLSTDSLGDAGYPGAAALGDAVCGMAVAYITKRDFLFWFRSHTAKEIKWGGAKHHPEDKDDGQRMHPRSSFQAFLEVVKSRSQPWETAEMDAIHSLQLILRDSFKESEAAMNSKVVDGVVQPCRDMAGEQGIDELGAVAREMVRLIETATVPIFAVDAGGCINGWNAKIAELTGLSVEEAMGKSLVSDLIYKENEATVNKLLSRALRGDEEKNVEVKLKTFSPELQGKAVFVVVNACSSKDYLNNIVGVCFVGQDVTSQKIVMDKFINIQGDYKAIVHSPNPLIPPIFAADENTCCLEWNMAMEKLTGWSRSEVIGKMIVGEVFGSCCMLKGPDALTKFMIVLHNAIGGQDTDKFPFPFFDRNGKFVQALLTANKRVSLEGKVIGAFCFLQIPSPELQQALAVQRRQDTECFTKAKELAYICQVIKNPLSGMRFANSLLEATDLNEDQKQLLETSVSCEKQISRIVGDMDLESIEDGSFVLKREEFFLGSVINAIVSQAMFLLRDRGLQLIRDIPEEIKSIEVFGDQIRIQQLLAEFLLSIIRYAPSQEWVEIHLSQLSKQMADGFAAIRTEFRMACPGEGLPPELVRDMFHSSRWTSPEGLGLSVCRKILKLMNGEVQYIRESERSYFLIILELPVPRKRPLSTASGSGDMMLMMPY

Molecule: Nc1ncnc2c1ncn2[C@@H]1O[C@H](COP(=O)(O)OP(=O)(O)OP(=O)(O)O)[C@@H](O)[C@H]1O [ATP]
in vitro kinase assay, autoradiogram (full-length SPA1): mSPA1 showed significantly reduced PIF1 phosphorylation compared to the wild type SPA1

binding result [1]: binds
B1: GST-PIF1-strep (natural protein, Arabidopsis, UniProt Q8GZM7 1-478, looked up)
chain: MHHFVPDFDTDDDYVNNHNSSLNHLPRKSITTMGEDDDLMELLWQNGQVVVQNQRLHTKKPSSSPPKLLPSMDPQQQPSSDQNLFIQEDEMTSWLHYPLRDDDFCSDLLFSAAPTATATATVSQVTAARPPVSSTNESRPPVRNFMNFSRLRGDFNNGRGGESGPLLSKAVVRESTQVSPSATPSAAASESGLTRRTDGTDSSAVAGGGAYNRKGKAVAMTAPAIEITGTSSSVVSKSEIEPEKTNVDDRKRKEREATTTDETESRSEETKQARVSTTSTKRSRAAEVHNLSERKRRDRINERMKALQELIPRCNKSDKASMLDEAIEYMKSLQLQIQMMSMGCGMMPMMYPGMQQYMPHMAMGMGMNQPIPPPSFMPFPNMLAAQRPLPTQTHMAGSGPQYPVHASDPSRVFVPNQQYDPTSGQPQYPAGYTDPYQQFRGLHPTQPPQFQNQATSYPSSSRVSSSKESEDHGNHTTG
notes: source: E. coli BL21(DE3), purified (Strep-Tactin Sepharose); not shown: GST, N-terminal, kept; Strep tag, C-terminal, kept
